These results are taken from patent publication US9517202B2, “Phospholipid depot” (LATITUDE PHARMACEUTICALS INC., priority 2009, dated 2016).

A short description of this data set: Injectability test: force to extrude from 1 cc syringe through 25 G ½ inch needle at 2 cc/min. Type of data set: physicochemical. Conditions: 25 G ½ inch long needle. The source says:
A major disadvantage of the polymer depots is that they require large diameter needles for injection or implantation due to the physical size of the microcapsules/microspheres and/or the high viscosity of the polymer gel. For example, 14- or 16-gauge (G) needles are required for implantation of Zoladex™ and 18 G or 20 G needles for injection of Eligard™. However, in common medical practice, needles of size greater than 21 G are generally not used for injection because they cause significant pain and psychological trauma for patients. […] The injectability or ease with which the end user can self-inject through such a system will be key to such a drug's user compliance and therapeutic efficacy. For discussion purposes herein, the injectability of a syringe-administered depot is quantitatively defined as meeting the “Acceptable Injectability Criterion” if it requires an applied force of no more than 10 pounds to be extruded from a 1 cc syringe through a 25 G ½ inch long needle at rate of 2 cc/min.
The phrase “Acceptable Injectability Criterion” as used herein includes quantitatively defining a formulation that requires an applied force of no more than 10 pounds to extrude the formulation from a 1 cc syringe through a 25 G ½ inch long needle at rate of 2 cc/min. […]
F-43 was a translucent one-phase gel. The injectability of F-43 was determined against the Acceptable Injectability Criterion. […]

For `OCC(O)CO` [glycerin], the maximum injection force entry was “approximately 8 pounds”.
